Assays:
Assay type in all cases: biochemical, human
[1] = system: blood immediately after collected from a normal person; assay: Normal blood coagulation time; settings: for Normal blood coagulation time: standard control 42.5
Procedure: (3) Normal Blood Coagulation Time (Second):
The sulfated polysaccharide 50 μl was separately put (the concentration was adjusted so that the final concentration was a measured concentration) in advance into plastic test tubes (3.3 ml blood collected tube, manufactured by IWAKI Co., Ltd.), and each 1 ml of blood immediately after collected from a normal person was put into the test tubes containing the sulfated polysaccharide and quickly mixed, and the test tubes were repetitively inclined to measure time (second) in which the fluidity disappeared.

[2] = system: extrinsic pathway coagulation; assay: Prothrombin time (PT); settings: for PT: standard control 12.6
Text: (5) Prothrombin Time (PT):
The present method is a method for inspecting dynamics of extrinsic pathway coagulation. The present method has sensitivity to qualitative and quantitative abnormality in the factor II (prothrombin), the factor V, the factor VII, the factor X and the factor I (fibrinogen), and it is scarcely influenced by the […] and the factor VIII. First, normal (normal volunteer) blood citrate-collected (collected in a plastic test tube charged with 3.13 wt % sodium citrate of 1/10 volume) was subjected to centrifugal separation at 3000 rpm for 10 minutes to obtain supernatant plasma. The PT time was obtained by mixing plasma for inspection with a PT reagent (a mixed solution of tissue thromboplastin and calcium chloride) to measure fibrin-depositing time (second) (using an automatic measuring apparatus). The sample of the sulfated polysaccharide was added to the plasma for inspection in an addition concentration of 0.001 to 1 mg/ml, and normal plasma was used for a standard control.

[3] = system: intrinsic pathway coagulation; assay: Activated partial thromboplastin time (APTT)
Text: (4) Activated Partial Thromboplastin Time (APTT):
The present method is a method for inspecting dynamics of intrinsic pathway coagulation. The present method has sensitivity to qualitative and quantitative abnormality in the factor XII, the factor XI, high molecular weight kininogen, prekallikrein, the factor IX, the factor VIII, the factor X, the factor V, the factor II (prothrombin) and the factor I (fibrinogen). First, normal (normal volunteer) blood citrate-collected (collected in a plastic test tube charged with 3.13 wt % sodium citrate of 1/10 volume) was subjected to centrifugal separation at 3000 rpm for 10 minutes to obtain supernatant plasma. The APTT time was obtained by mixing plasma for inspection with an APTT reagent and then measuring fibrin-depositing time (second) after adding a calcium chloride solution (using an automatic measuring apparatus). The sulfated polysaccharide was added to the plasma for inspection in an addition concentration of 0.001 to 1 mg/ml, and normal plasma was used for a standard control.

[4] = addition concentration 1 mg/ml in normal plasma, standard control 35 (30 in Example 1)
[5] = addition concentration 0.001 mg/ml in normal plasma
[6] = addition concentration 0.01 mg/ml in normal plasma
[7] = addition concentration 0.1 mg/ml in normal plasma
[8] = addition concentration 1 mg/ml in normal plasma
[9] = addition concentration 0.001 mg/ml in normal plasma, standard control 35
[10] = addition concentration 0.01 mg/ml in normal plasma, standard control 35
[11] = addition concentration 0.1 mg/ml in normal plasma, standard control 35
[12] = addition concentration 0.001 mg/ml
[13] = addition concentration 0.01 mg/ml
[14] = addition concentration 0.1 mg/ml

Row | Substance | coagulation time of normal blood, extension (in words) ([1]; addition of 0.01 mg/ml) | PT time, extension (in words) ([2]; gellan sulfate added to plasma, versus sample without gellan sulfate) | APTT [3, 4] [s] | PT [2, 5] [s] | PT [2, 6] [s] | PT [2, 7] [s] | PT [2, 8] [s] | APTT [3, 9] [s] | APTT [3, 10] [s] | APTT [3, 11] [s] | Normal blood coagulation time [1, 12] [min] | Normal blood coagulation time [1, 13] [min] | Normal blood coagulation time [1, 14] [min] | Normal blood coagulation time ([1]; addition concentration 1 mg/ml) [min] | coagulation time of normal blood, extension (in words) ([1]; 1 mg/ml added)
1 | chondroitin sulfate [reference compound] | not observed at all to be extended | – | – | – | – | – | – | – | – | – | – | – | – | – | –
2 | gellan sulfate [Example 1] | – | significant extension of the time was not observed | 95 | – | – | – | – | – | – | – | – | – | – | – | –
3 | gellan sulfate [Example 2] | – | – | ≥ 300 | 11.6 | 11.7 | 15.8 | ≥ 300 | 38.1 | 30 | ≥ 300 | 54 | 93 | 230 | ≥ 600 | –
4 | gellan sulfate [Example 3] | – | – | ≥ 300 | 11.3 | 11.8 | 19.3 | ≥ 300 | 49 | 103.5 | ≥ 300 | 58.9 | 138.8 | 216.3 | ≥ 600 | –
5 | gellan sulfate [Example 4] | – | – | ≥ 300 | 13 | 12 | 14 | ≥ 300 | 45 | 45 | ≥ 300 | 39.9 | 72 | ≥ 600 | ≥ 600 | –
6 | gellan sulfate [compound 1, reference compound] | – | – | – | – | – | – | – | – | – | – | – | – | – | – | not observed to be extended
7 | heparin [reference compound] | – | – | ≥ 300 | 13 | 13 | ≥ 300 | ≥ 300 | 50 | ≥ 300 | ≥ 300 | 105.6 | ≥ 600 | ≥ 600 | ≥ 600 | –
